According to patent publication US9121026B2 (priority 2004, dated 2015):

Tested on: RE700A i PPMA1-HXT7 (ICFP)
Test: Growth inhibition of ICFP by 2-DG
Type: cell-based, Saccharomyces cerevisiae
Conditions: 20 h 28° C., maltose, in percent of growth of RE700A
Experimental: (B) RE700A, ICFP and IT[PDR] were incubated 20 h at 28° C. with maltose (2% (w/v)) as the sole carbon source and the indicated 2-DG concentrations. The optical density was measured at 600 nm every 15 minutes and the integral under the growth curve is calculated. Inhibition of growth of ICFP and IT[PDR] is shown in percent of growth of RE700A. Growth of ICFP was inhibited by 15% at 0.01% (w/v) 2-DG, by 74% at 0.03% (w/v) 2-DG, by 80% at 0.05% (w/v) 2-DG and by 83% at 0.1% (w/v) 2-DG. Growth of IT[PDR] was inhibited by 21% at 0.01% (w/v) 2-DG, by 79% at 0.03% (w/v) 2-DG, by 88% at 0.05% (w/v) 2-DG and by 96% in 0.1% (w/v) 2-DG.
Strain growth: The growth of the strains in liquid medium was determined by measuring the optical density at 600 nm. To obtain growth curves, measurements were performed every 15 min. Alternatively, start and endpoint (after 12-16 h) measurements were carried out.

Compound: O=CC[C@@H](O)[C@H](O)[C@H](O)CO [2-DG, 2-deoxy-glucose]
- Inhibition of growth (0.01% (w/v) 2-DG): 15%
- Inhibition of growth (0.03% (w/v) 2-DG): 74%
- Inhibition of growth (0.05% (w/v) 2-DG): 80%
- Inhibition of growth (0.1% (w/v) 2-DG): 83%
